Key:
Trichophyton rubrum = assay: Agar dilution method, colony growth on sample plate; assay type: cell-based; conditions: T. rubrum, 28° C., 12 days; for Diameter of the colony: 2 mL sample + 18 mL Sabourand agar medium, 5 mm colony disk; for Antifungal activity: 100-[(x-5)/(y-5)x100] vs standard plate, 2 mL sample + 18 mL medium
[1] = tested on: Trichophyton mentagrophytes; assay: as above; assay type: cell-based; conditions: T. mentagrophytes, 28° C., 12 days; for Diameter of the colony: 2 mL sample + 18 mL Sabourand agar medium, 5 mm colony disk; for Antifungal activity: 100-[(x-5)/(y-5)x100] vs standard plate, 2 mL sample + 18 mL medium
pH measurement = assay type: physicochemical; conditions: sample plate: 2 mL sample + 18 mL Sabourand agar medium
Helicobasidium mompa = assay: Agar dilution method on potato dextrose agar; assay type: cell-based; conditions: 2 mL sample + 18 mL potato dextrose agar
Rosellinia necatrix = assay: Agar dilution method on potato dextrose agar; assay type: cell-based; conditions: 2 mL sample + 18 mL potato dextrose agar
Pythium graminicola = assay: Agar dilution method on potato dextrose agar; assay type: cell-based; conditions: 2 mL sample + 18 mL potato dextrose agar
Fusarium oxysporum = assay: Agar dilution method on potato dextrose agar; assay type: cell-based; conditions: 2 mL sample + 18 mL potato dextrose agar
[2] = tested on: enterohemorrhagic E. coli O-157; conditions: Japanese Patent Laid-Open No. 300284/2000; cited from earlier work

Row | Compound | Diameter of the colony (Trichophyton rubrum) | Antifungal activity (Trichophyton rubrum) | Diameter of the colony [1] | Antifungal activity [1] | PH of the Medium (pH measurement) | further results
1 | O=C([O-])c1ccccc1C(=O)O.[K+] [Comp. Ex. 2, potassium hydrogen phthalate] | 21.0 ± 1.5 mm | 58% | 51.1 ± 2.4 mm | 6% |  | 
2 | O=C(O)CC(O)(CC(=O)O)C(=O)O [Comp. Ex. 3, citric acid] | 26.5 ± 1.5 mm | 44% | 14.8 ± 0.7 mm | 80% |  | 
3 | O=C(O)C(=O)O [Comp. Ex. 5, oxalic acid] | 36.5 ± 1.1 mm | 18% | 17.6 ± 0.1 mm | 74% | 4.30 | 
4 | O=C(O)CC(=O)O [Comp. Ex. 6, malonic acid] | 5.5 ± 0.0 mm | 99% | 5.5 ± 0.0 mm | 99% | 2.91 | 
5 | CC(O)C(=O)O (stereo not shown) [Comp. Ex. 7, lactic acid] | 18.0 ± 5.0 mm | 66% | 17.7 ± 1.4 mm | 74% | 3.46 | 
6 | CC(=O)O [Comp. Ex. 8, acetic acid] | 5.4 ± 0.3 mm | 99% | 5.7 ± 0.3 mm | 99% | 4.12 | 
7 | O=C([O-])c1ccccc1C(=O)O.[K+] [Comparative Example 12, potassium hydrogen phthalate] |  |  |  |  |  | Diameter of the colony (Helicobasidium mompa; […]): 8.1 ± 0.7 mm; Antifungal activity (Helicobasidium mompa; vs standard plate): 95%; Diameter of the colony (Rosellinia necatrix; […]): 70.3 ± 0.0 mm; Antifungal activity (Rosellinia necatrix; vs standard plate): 5%; Diameter of the colony (Pythium graminicola; […]): 13.1 ± 0.6 mm; Antifungal activity (Pythium graminicola; vs standard plate): 88%; Diameter of the colony (Fusarium oxysporum; […]): 54.1 ± 4.1 mm; Antifungal activity (Fusarium oxysporum; vs standard plate): 5%
8 | O=C(O)C(O)Cc1ccccc1 (stereo not shown) [phenyllactic acid] |  |  |  |  |  | antibacterial activity [2]: strong antibacterial activity

From US20030170218A1, “Fungicide and method for producing the same” (Biobank Co., Ltd., priority 2002, published 2003)
